Measured values as given in BindingDB's records for doi:10.7270/Q2125R2H (University of Pittsburgh, 2007).

Target: T1, M-phase inducer phosphatase 2 (Homo sapiens, UniProt P30305)
T1 sequence (P30305 whole entry): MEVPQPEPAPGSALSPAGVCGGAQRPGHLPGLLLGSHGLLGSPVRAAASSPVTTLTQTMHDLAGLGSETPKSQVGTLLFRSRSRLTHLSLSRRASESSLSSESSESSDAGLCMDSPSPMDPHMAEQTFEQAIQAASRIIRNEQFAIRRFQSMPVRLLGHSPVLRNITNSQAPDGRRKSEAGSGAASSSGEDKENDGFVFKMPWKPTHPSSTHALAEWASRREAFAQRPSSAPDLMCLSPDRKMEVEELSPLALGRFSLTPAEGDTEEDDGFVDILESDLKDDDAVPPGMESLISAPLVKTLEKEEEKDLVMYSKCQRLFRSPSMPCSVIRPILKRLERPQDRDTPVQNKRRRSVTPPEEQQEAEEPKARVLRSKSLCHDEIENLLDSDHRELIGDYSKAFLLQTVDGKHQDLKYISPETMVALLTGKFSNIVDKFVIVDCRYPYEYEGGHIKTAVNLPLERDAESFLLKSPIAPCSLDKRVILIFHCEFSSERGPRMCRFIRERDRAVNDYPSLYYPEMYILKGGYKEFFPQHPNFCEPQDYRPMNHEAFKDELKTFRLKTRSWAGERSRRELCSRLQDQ
Assay: Cdc25B phosphatase inhibitors, dose response, biochemical, probe assessment (AID 676)

| SMILES | IC50 [µM] |
| --- | --- |
| COc1ccc(Br)cc1C=c1sc2nc(-c3ccco3)nn2c1=O [5-[(5-bromanyl-2-methoxy-phenyl)methylidene]-2-(furan-2-yl)-[1,3]thiazolo[3,2-b][1,2,4]triazol-6-one] | 14.8 |
| Cc1ccc(C)n1-c1cccc(C(=O)O)c1 | > 50 |
| COc1ccc(-c2cc3nc(C4CCN(C(=O)OC(C)(C)C)CC4)c(C(=O)O)cn3n2)cc1 [2-(4-methoxyphenyl)-5-[1-[(2-methylpropan-2-yl)oxy-oxomethyl]-4-piperidinyl]-6-pyrazolo[1,5-a]pyrimidinecarboxylic acid] | > 50 |
| CCOc1ccc(-c2cc3nc(C4CCN(C(=O)OC(C)(C)C)CC4)c(C(=O)O)cn3n2)cc1 [2-(4-ethoxyphenyl)-5-[1-[(2-methylpropan-2-yl)oxy-oxomethyl]-4-piperidinyl]-6-pyrazolo[1,5-a]pyrimidinecarboxylic acid] | > 50 |
| COCCCn1c(N)c(C(=O)NCCC(C)C)c2nc3ccccc3nc21 [MLS000041744] | > 50 |
| O=C(c1cccs1)c1no[n+]([O-])c1C(=O)c1cccs1 [(5-oxidanidyl-4-thiophen-2-ylcarbonyl-1,2,5-oxadiazol-5-ium-3-yl)-thiophen-2-yl-methanone] | > 50 |
| N#Cc1c(N)sc(=S)c2c1CCN(Cc1ccccc1)C2 [3-Amino-7-benzyl-1-thioxo-5,6,7,8-tetrahydro-1H-thiopyrano[3,4-c]pyridine-4-carbonitrile] | 4.99 |
| Cc1ccc2c(c1C)NC(C(=O)O)C1CC=CC21 (stereo not drawn) | 15.9 |
| CCOC(=O)c1ccc2c(c1)C1C=CCC1C(C(=O)O)N2 (stereo not drawn) [MLS-0025126.0001] | 18.2 |
| CCCSc1nnc(NC(=O)c2sc3nc(-c4cccs4)ccc3c2N)s1 [3-amino-N-(5-propylsulfanyl-1,3,4-thiadiazol-2-yl)-6-thiophen-2-ylthieno[2,3-b]pyridine-2-carboxamide] | > 50 |
| [O-]/[N+](=C\c1ccncc1)c1ccccc1 | > 50 |
| CCCCC[C@H](O)C=C[C@H]1C=CC(=O)[C@@H]1C/C=C\CCCC(=O)O [(Z)-7-[(1R,5S)-2-oxidanylidene-5-[(E,3S)-3-oxidanyloct-1-enyl]cyclopent-3-en-1-yl]hept-5-enoic acid] | > 50 |
| Cc1cccc(N2CCN(C(=O)Cc3c(C(=O)O)[nH]c4ccc(Cl)cc34)CC2)c1C [5-chloranyl-3-[2-[4-(2,3-dimethylphenyl)piperazin-1-yl]-2-oxidanylidene-ethyl]-1H-indole-2-carboxylic acid] | > 50 |
| CCCCCNC(=O)c1ccc2c(=O)[nH]c3c(C(=O)NCC4CCCO4)sc(=S)n3c2c1 (stereo not drawn) [5-oxo-N3-(2-oxolanylmethyl)-N8-pentyl-1-sulfanylidene-4H-thiazolo[3,4-a]quinazoline-3,8-dicarboxamide] | > 50 |
| O=C(NC1(O)C(=O)c2ccccc2C1=O)c1ccccc1 [N-(2-hydroxy-1,3-dioxo-2-indenyl)benzamide] | 12.6 |
| CCn1nc(-c2ccccc2)nc2c(=O)n(C)c(=O)nc1-2 [1-Ethyl-6-methyl-3-phenyl-1H-pyrimido[5,4-e][1,2,4]triazine-5,7-dione] | 0.447 |
| Cc1ccc(/C=C/C2=Cc3c(sc(NC(=O)CSc4nnc(N)[nH]4)c3C#N)C(C)(C)C2)o1 [2-[(5-azanyl-1H-1,2,4-triazol-3-yl)sulfanyl]-N-[3-cyano-7,7-dimethyl-5-[(E)-2-(5-methylfuran-2-yl)ethenyl]-6H-1-benzothiophen-2-yl]ethanamide] | 46.9 |
| O=C(Nc1ccccc1)c1ccc2nc(-c3ccco3)c(-c3ccco3)nc2c1 [2,3-di-2-furyl-N-phenyl-6-quinoxalinecarboxamide] | 35.6 |
| Cc1cccc(NC(=O)c2cc(NC(=O)C3CCCCC3C(=O)O)ccc2N2CCCCC2)c1 (stereo not drawn) [2-({[3-{[(3-methylphenyl)amino]carbonyl}-4-(1-piperidinyl)phenyl]amino}carbonyl)cyclohexanecarboxylic acid] | > 50 |
| CC(C)Cn1c(N)c(C(=O)COC(=O)c2cc(-c3ccco3)nc3ccccc23)c(=O)n(C)c1=O [2-(2-furanyl)-4-quinolinecarboxylic acid [2-[4-amino-1-methyl-3-(2-methylpropyl)-2,6-dioxo-5-pyrimidinyl]-2-oxoethyl] ester] | 46.6 |
| CCOc1cc(/C=C(/C#N)c2ccc(F)cc2)ccc1OCc1ccc(C(=O)O)o1 [5-[[4-[(E)-2-cyano-2-(4-fluorophenyl)ethenyl]-2-ethoxyphenoxy]methyl]furan-2-carboxylic acid] | > 50 |
| Cc1cc(C)n2c(SCC(=O)N3CCN(S(=O)(=O)c4ccc(Cl)cc4)CC3)nnc2n1 [1-[4-(4-chlorophenyl)sulfonyl-1-piperazinyl]-2-[(5,7-dimethyl-[1,2,4]triazolo[4,3-a]pyrimidin-3-yl)thio]ethanone] | > 50 |
| O=C1Nc2ccccc2SC(c2ccccc2)C1O (stereo not drawn) [3-hydroxy-2-phenyl-2,3-dihydro-1,5-benzothiazepin-4(5H)-one] | > 50 |
| O=C(Nc1ccc2nc(-c3ccco3)c(-c3ccco3)nc2c1)N1CCCCCC1 | 31.4 |
| CCn1nc(-c2cccs2)nc2c(=O)n(C)c(=O)nc1-2 [1-ethyl-6-methyl-3-thiophen-2-yl-pyrimido[5,4-e][1,2,4]triazine-5,7-dione] | 0.552 |
| CCn1c(SCC(=O)Nc2nc3ccc(OC)cc3s2)nc2c1c(=O)n(C)c(=O)n2C [2-(7-Ethyl-1,3-dimethyl-2,6-dioxo-2,3,6,7-tetrahydro-1H-purin-8-ylsulfanyl)-N-(6-methoxy-benzothiazol-2-yl)-acetamide] | > 50 |
| Cn1ncnc2c(=O)n(C)c(=O)nc1-2 | 0.396 |
| CC1=C(/C=C/C(C)=C/C=C/C(C)=C/C(=O)O)C(C)(C)CCC1 [ALL-TRANS-RETINOIC ACID] | > 50 |
| O=C1C=Cc2ccccc2C1=O [1,2-dihydronaphthalene-1,2-dione] | 19 |

Other lines, results leading:

| IC50 [µM] | SMILES |
| --- | --- |
| 46.8 | COc1ccc(Cn2c(C)nc3c(c2=O)c2nc4ccccc4nc2n3Cc2ccco2)cc1 [MLS000079944] |
| 13.7 | Cc1c(N=c2c(=O)c3ccccc3c2=O)c(=O)n(-c2ccccc2)n1C [MLS000105950] |
| 31.5 | CCCCn1c(NC(=O)c2ccccc2)c(C#N)c2nc3ccccc3nc21 [SMR000060333] |
| > 50 | COc1ccc2noc3c2c1C(=O)c1ccccc1-3 [MLS000106874] |
| > 50 | CCc1ccc(NC(=O)CSc2nc3ccccc3c(=O)n2CCN2CCOCC2)cc1 [MLS000095236] |
| 21.2 | N#Cc1c(N2CCCC2)nc(N)c2c(N)nc(N3CCCC3)cc12 [SMR000061605] |
| 35.8 | Cc1ccc(-c2csc(NC(=O)c3ccno3)n2)cc1 [MLS000081820] |
| > 50 | CC(C)Sc1nc2sc3c(c2c2nnc(SCC(=O)NCc4ccco4)n12)CCCC3 [MLS000082957] |
| > 50 | CCOc1ccc2noc3c2c1C(=O)c1ccccc1-3 [MLS000106837] |
| > 50 | Cc1cc(NC(=O)c2ccc(S(=O)(=O)N3CCCC3)cc2)nc2c1c(=O)oc1ccccc12 [MLS000091355] |
| > 50 | FC(F)(F)c1ccc(N2CCOCC2)c(Nc2nc3ccccc3n3cnnc23)c1 [MLS000093276] |
| 9.6 | O=C(OC1CCCCC1)c1ccc2c(c1)C1C=CCC1C(C(=O)O)N2 (stereo not drawn) [SMR000019385] |
| 46.1 | CCn1c(SCC(=O)Nc2ccc3c(c2)c2ccccc2n3CC)nnc1-c1ccco1 [MLS000050867] |
| > 50 | COC(=O)c1ccccc1NC(=O)CN1C(=O)C2CCCN2c2ncc(Cl)cc21 (stereo not drawn) [MLS000094302] |
